Measurements from patent US10829487B2, “Benzylamino substituted pyridopyrimidinones and derivatives as SOS1 inhibitors” (Boehringer Ingelheim International GmbH, priority 2017, dated 2020).

Legend:
[1] = target: protein-protein interaction between SOS1 and KRAS G12D (Homo sapiens (Human), UniProt Q07889); assay: KRAS::SOS1 AlphaScreen Binding Assay
Description: KRAS::SOS1 AlphaScreen Binding Assay
Low IC50 values are indicative of high potency of the SOS1 inhibitor compound in this assay setting:
Reagents: • GST-tagged SOS1 (564_1049_GST_TEV_ECO) produced in-house • GST-TEV-SOS1 (564-1049) is purchased from Viva Biotech Ltd. • 6×His-Tev-K-RasG12D(1-169)Avi is purchased from Xtal BioStructures, Inc. (Lot # X129-110) • GDP (Sigma Cat No G7127) • AlphaLISA Glutathione Acceptor Beads (PerkinElmer, Cat No AL109) • AlphaScreen Streptavidin Donor Beads (PerkinElmer Cat No 6760002) • Assay plates: Proxiplate-384 PLUS, white (PerkinElmer, Cat No 6008289)
10 nM (final assay concentration) KRAS G12D, 10 μM (final assay concentration) GDP and 5 nM (final assay concentration) GST-SOS1 are mixed in assay buffer prior to use and kept at room temperature.
AlphaLISA Glutathione Acceptor Beads and AlphaScreen Streptavidin Donor Beads are mixed in assay buffer at a concentration of 10 μg/mL (final assay concentration) each prior to use and kept at room temperature.
Compounds are diluted to a final start concentration of 100 μM and are tested in duplicate. Assay-ready plates (ARPs) are generated using an Access Labcyte Workstation with a Labcyte Echo 550 or 555 accoustic dispenser. For compound a start concentration of 100 μM, 150 nL of compound solution is transferred per well in 11 concentrations in duplicate with serial 1:5 dilutions.
The assay is run using a fully automated robotic system in a darkened room below 100 Lux. 10 μL of KRAS::SOS1 GDP mix is added into columns 1-24 to the 150 nL of compound solution (final dilution in the assay 1:100, final DMSO concentration 1%).
After a 30 minute incubation time 5 μL of bead mix is added into columns 1-23. Plates are kept at room temperature in a darkened incubator. After a further 60 minute incubation, the signal is measured using a PerkinElmer Envision HTS Multilabel Reader using the AlphaScreen specifications from PerkinElmer. Each plate contains the following controls: • diluted DMSO+KRAS::SOS1 GDP mix+bead mix • diluted DMSO+KRAS::SOS1 GDP mix
IC50 values are calculated and analyzed using a 4 parametric logistic model.

[2] = system: ERK phosphorylation in DLD-1 cells (KRAS G13D); assay: ERK Phosphorylation Assay (AlphaLISA SureFire Ultra p-ERK1/2); assay type: cell-based; conditions: Homo sapiens, 1 h compound, EGF 50 ng/mL 10 min, read-out: pERK
Experimental: ERK Phosphorylation Assay
Low IC50 values are indicative of high potency of the SOS1 inhibitor compounds in this assay setting.
ERK phosphorylation assays are performed using the following human cell lines: DLD-1 (ATCC CCL-221): human colon cancer with a KRAS G13D mutation;
DLD-1 cells (ATCC CCL-221) are seeded at 50,000 cells per well in/60 μL of RPMI with 10% FBS, non-essential amino acids, pyruvate and glutamax in Greiner TC 384 plates. The cells are incubated for 1 h at room temperature and then incubated overnight in an incubator at 37° C. and 5% CO2 in a humidified atmosphere. 60 nL compound solution (10 mM DMSO stock solution) is then added using a Labcyte Echo 550 device. After a 1 h incubation in the aforementioned incubator, 3 μL Epidermal Growth Factor (EGF, final concentration 50 ng/mL) is added. 10 minutes later the medium is removed, and the cells lysed by addition of 20 μL of 1.6-fold lysis buffer from the AlphaLISA SureFire Ultra pERK1/2 (Thr202/Tyr204) Assay Kit with added protease inhibitors, 100 nM trametinib+100 nM staurosporine. After 20 minutes of incubation at room temperature with shaking, 6 μL of each lysate sample is transferred to a 384-well Proxiplate and analyzed for pERK (Thr202/Tyr204) with the AlphaLISA SureFire Ultra pERK1/2 (Thr202/Tyr204) Assay Kit. 3 μL Acceptor Mix and 3 μL Donor Mix are added under subdued light and incubated for 2 h at room temperature in the dark, before the signal is measured on a Perkin Elmer Envision plate reader using 384 AlphaScreen settings for Proxiplates. Data are fitted by iterative calculation with variable hill slope. The sigmoidal curve slope is fitted using a default fitting curve to ascertain IC50 values.

[3] = Metabolic (microsomal) stability assay, rat liver microsomes (RLM); assay type: in vitro ADME; conditions: 1 μM test compound, 37° C.
Experimental: (§1) Metabolic (Microsomal) Stability Assay: The metabolic degradation of the test compound is assayed at 37° C. with pooled liver microsomes (mouse (MLM), rat (RLM) or human (HLM)). The final incubation volume of 74 μL per time point contains TRIS buffer (pH 7.5; 0.1 M), magnesium chloride (6.5 mM), microsomal protein (0.5 mg/mL for mouse/rat, 1 mg/mL for human specimens) and the test compound at a final concentration of 1 μM. Following a short preincubation period at 37° C., the reactions are initiated by addition of 8 μL beta-nicotinamide adenine dinucleotide phosphate, reduced form (NADPH, 10 mM) and terminated by transfering an aliquot into solvent after different time points. Additionally, the NADPH-independent degradation is monitored in incubations without NADPH, terminated at the last time point by addition of acetonitrile. The quenched incubations are pelleted by centrifugation (1811 g, 5 min). An aliquot of the supernatant is assayed by LC-MS/MS for the amount of parent compound. In vitro intrinsic clearance (CLint, in vitro) is calculated from the time course of the disappearance of the test drug during the microsomal incubation. Each plot is fitted to the first-order elimination rate constant as C(t)=C0*exp(−ke*t), where C(t) and C0 are the concentration of unchanged test drug at incubation time t and that at preincubation and ke is the disappearance rate constant of the unchanged drug. Subsequently, CLint, in vitro (μL min^−1·amount protein) values are converted to CLint, in vitro (mL min^−1·kg^−1) for the whole body. CLint, in vitro data are scaled up using physiological parameters. For better across species comparison the predicted clearance is expressed as percent of the liver blood flow [% QH] in the individual species. In general, high stability (corresponding to low % QH) of the compounds across species is desired.

[4] = Metabolic (microsomal) stability assay, mouse liver microsomes (MLM); assay type: in vitro ADME; conditions: 1 μM test compound, 37° C.
Experimental: as §1

[5] = Metabolic (microsomal) stability assay, human liver microsomes (HLM); assay type: in vitro ADME; conditions: 1 μM test compound, 37° C.
Experimental: as §1

[6] = Table 20, KRAS::SOS1 AlphaScreen (SOS1 / KRAS G12D)
[7] = KRAS G12D::SOS1 AlphaScreen, measured without EDTA unless marked with an asterisk

Sequence of protein-protein interaction between SOS1 and KRAS G12D (Q07889 564-1049, stated change not applied): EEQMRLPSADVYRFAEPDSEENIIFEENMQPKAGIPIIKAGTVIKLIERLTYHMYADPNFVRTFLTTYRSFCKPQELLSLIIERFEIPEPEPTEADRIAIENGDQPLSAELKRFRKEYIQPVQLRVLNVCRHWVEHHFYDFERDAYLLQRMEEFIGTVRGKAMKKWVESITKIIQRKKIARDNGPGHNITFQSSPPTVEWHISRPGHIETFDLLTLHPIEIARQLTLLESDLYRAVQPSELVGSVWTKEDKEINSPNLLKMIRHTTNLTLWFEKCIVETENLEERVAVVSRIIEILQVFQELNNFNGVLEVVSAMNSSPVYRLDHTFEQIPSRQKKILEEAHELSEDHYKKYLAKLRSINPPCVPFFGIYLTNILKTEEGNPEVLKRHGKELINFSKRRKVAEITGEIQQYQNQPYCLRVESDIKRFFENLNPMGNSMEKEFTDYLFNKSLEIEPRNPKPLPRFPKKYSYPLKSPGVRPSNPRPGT

SMILES | IC50 [1, 6] | IC50 [2] | IC50 [1, 7] | further results
Cc1nc(N[C@H](C)c2cccc(C(C)(F)F)c2F)c2cn(C3(C)CC3)c(=O)cc2n1 [I-52] | 4 nM | 96 nM |  | 
Cc1nc(N[C@H](C)c2cccc(C(F)F)c2F)c2cn(C3(C(F)F)CC3)c(=O)cc2n1 [I-3] |  |  |  | RLM [% QH] [3]: <23 % QH; MLM [% QH] [4]: 51 % QH; HLM [% QH] [5]: <24 % QH
C[C@@H](Nc1ncnc2c(F)c(=O)n(C3(C(F)F)CC3)cc12)c1cccc(C(F)F)c1F [I-96] | 7 nM |  |  | RLM [% QH] [3]: <23 % QH; MLM [% QH] [4]: 30 % QH; HLM [% QH] [5]: <24 % QH
Cc1nc(N[C@H](C)c2cccc(C(F)(F)C(C)(C)O)c2F)c2cn(C34CC(C3)C4)c(=O)c(F)c2n1 [I-90] | 4 nM |  |  | RLM [% QH] [3]: <23 % QH; MLM [% QH] [4]: <24 % QH; HLM [% QH] [5]: <24 % QH
Cc1nc(N[C@H](C)c2cccc(C(F)F)c2F)c2cn(C34CCC(O)(CC3)CC4)c(=O)c(C)c2n1 [I-156] |  | 57 nM | 4 nM | 
C[C@@H](Nc1ncnc2cc(=O)n(C34CCC(F)(CC3)CC4)cc12)c1cccc(C(F)F)c1F [I-73] | 3 nM | 88 nM |  | 
Cc1nc(N[C@H](C)c2cccc(C(F)F)c2F)c2cn(C3(C(F)(F)F)CC3)c(=O)cc2n1 [I-4] | 8 nM |  |  | RLM [% QH] [3]: <23 % QH; MLM [% QH] [4]: 46 % QH; HLM [% QH] [5]: <24 % QH
Cc1nc(N[C@H](C)c2cccc(C(F)(F)CO)c2F)c2cn(C34CCC(CC3)C4)c(=O)cc2n1 [I-61] | 1 nM | 95 nM |  | 
Cc1nc(N[C@H](C)c2cccc3c2CCC3(F)F)c2cn(C34CC(C3)C4)c(=O)cc2n1 [I-59] | 3 nM | 113 nM |  | 
Cc1nc(N[C@H](C)c2cccc(C(F)(F)CO)c2F)c2cn(C34CCC(CC3)CC4)c(=O)cc2n1 [I-130] |  | 38 nM | 1 nM | 
Cc1nc(N[C@H](C)c2cccc(C(F)(F)F)c2C)c2cn([C@H]3C[C@](O)(C(F)(F)F)C3)c(=O)cc2n1 [I-47] | 33 nM |  |  | RLM [% QH] [3]: 29 % QH; MLM [% QH] [4]: <24 % QH; HLM [% QH] [5]: 24 % QH
Cc1nc(N[C@H](C)c2cccc3c2CCC3(F)F)c2cn(C3(C(F)F)CC3)c(=O)cc2n1 [I-58] | 2 nM | 89 nM |  | 
Cc1c(=O)n(C23CC(F)(C2)C3)cc2c(N[C@H](C)c3cccc(C(C)(F)F)c3F)ncnc12 [I-176] |  | 120 nM | 10 nM | 
Cc1c(=O)n(C23CCC(F)(CC2)CC3)cc2c(N[C@H](C)c3cccc(C(F)F)c3F)ncnc12 [I-171] |  | 93 nM | 6 nM | 
Cc1c(=O)n(C23CCC(CC2)C3)cc2c(N[C@H](C)c3cccc4c3CCC4(F)F)ncnc12 [I-177] |  | 91 nM | 2 nM | 
Cc1nc(N[C@H](C)c2cccc(C(F)(F)F)c2C)c2cn(C3(CF)CC3)c(=O)cc2n1 [I-38] |  | 33 nM |  | 
Cc1nc(N[C@H](C)c2cccc(C(F)(F)F)c2C)c2cn(C3(C(F)(F)F)CC3)c(=O)cc2n1 [I-39] | 18 nM | 62 nM |  | 
Cc1nc(N[C@H](C)c2cccc3c(F)coc23)c2cn(C3(C(F)F)CC3)c(=O)cc2n1 [I-103] | 5 nM | 70 nM |  | 

SMILES | IC50 [1, 6] | IC50 [2] | IC50 [1, 7] | further results
C[C@@H](Nc1ncnc2cc(=O)n(C3(C)CC3)cc12)c1cccc2c1CCC2(F)F [I-104] |  | 87 nM | 4 nM | 
Cc1nc(N[C@H](C)c2cccc(C(F)F)c2C)c2cn(C3(C)CCC3)c(=O)cc2n1 [I-23] | 4 nM | 111 nM |  | 
Cc1nc(N[C@H](C)c2cccc(C(F)F)c2F)c2cn([C@]3(C(F)(F)F)CCOC3)c(=O)cc2n1 [I-119] |  | 70 nM | 5 nM | 
Cc1nc(N[C@H](C)c2cccc3c2OCC3(F)F)c2cn(C3(C(F)F)CC3)c(=O)cc2n1 [I-102] | 4 nM | 67 nM |  | 
Cc1nc(N[C@H](C)c2cccc(C(F)F)c2C)c2cn(C3(C(F)F)CC3)c(=O)cc2n1 [I-21] | 3 nM | 113 nM |  | 
C[C@@H](Nc1ncnc2cc(=O)n(C34CC(C3)C4)cc12)c1cccc2c1CCC2(F)F [I-106] |  | 113 nM | 4 nM | 
C[C@@H](Nc1ncnc2cc(=O)n(C3(C(F)(F)F)CCOC3)cc12)c1cccc(C(F)F)c1F (stereo partly drawn) [I-72] | 11 nM |  |  | 
CCC1(n2cc3c(N[C@H](C)c4cccc(C(F)F)c4F)nc(C)nc3cc2=O)CC1 [I-5] | 12 nM |  |  | 
Cc1c(=O)n(C2(CF)CC2)cc2c(N[C@H](C)c3cccc(C(F)F)c3F)ncnc12 [I-162] |  |  | 7 nM | 
Cc1nc(N[C@H](C)c2cccc(C(F)F)c2F)c2cn(C34CCC(O)(CC3)CC4)c(=O)cc2n1 [I-122] |  |  | 3 nM | 
COCC1(n2cc3c(N[C@H](C)c4cccc(C(F)F)c4F)nc(C)nc3cc2=O)CC1 [I-6] | 6 nM |  |  | 
Cc1nc(N[C@H](C)c2cccc(C(F)F)c2F)c2cn(C34CCC(F)(CC3)CC4)c(=O)cc2n1 [I-121] |  | 93 nM | 5 nM | 
Cc1nc(N[C@H](C)c2cccc(C(F)F)c2C)c2cn(C34CCC(C(=O)N(C)C)(CC3)CC4)c(=O)cc2n1 [I-124] |  | 85 nM | 2 nM | 
Cc1nc(N[C@H](C)c2cccc(C(C)(F)F)c2F)c2cn(C34CC(F)(C3)C4)c(=O)cc2n1 [I-56] | 15 nM |  |  | 
Cc1nc(N[C@H](C)c2cccc(C(F)F)c2C)c2cn(C3(C)CC3)c(=O)c(C)c2n1 [I-157] |  | 104 nM | 5 nM | 
C[C@@H](Nc1ncnc2cc(=O)n(C3(C)CC3)cc12)c1cccc(C(C)(F)F)c1F [I-76] | 7 nM |  |  | 
Cc1nc(N[C@H](C)c2cccc(C(F)(F)[C@@H]3CCCO3)c2F)c2cn(C3(C)CC3)c(=O)c(F)c2n1 [I-94] | 5 nM |  |  | 
Cc1nc(N[C@H](C)c2cccc(C(F)(F)F)c2C)c2cn(C3(C)CC3)c(=O)cc2n1 [I-37] | 5 nM | 61 nM |  | 
